Like-named read-outs stand apart in the source and are kept apart here. Each block holds one compound with its values, some of them ahead of it.
Assays:
[1] = system: adjuvant arthritis; assay: chronic adjuvant arthritis test in rats (Table I); assay type: in vivo, male Charles River Lewis rats; settings: for change in vivo at 95 µmol/kg / change in vivo at 3 µmol/kg: Rattus norvegicus, 552 h; for change in vivo at 3 µmol/kg: oral 3 μMol/Kg
Procedure: That the compounds of this invention are effective anti-arthritic agents can be seen from the results obtained when these compounds are administered to rats in accordance with the chronic adjuvant arthritis test system disclosed in Billingham and Davies "Handbook of Experimental Pharmacology" (editors J.R. Vane and S.H. Ferreira) Vol. 50/II, pg. 108-144, Springer-Verlag, Berlin, 1979).
In this procedure, adjuvant arthritis was induced by the subplantar injection on day o of 0.05 ml of adjuvant [a suspension of heat-killed, dessicated Mycobacterium butyricum, 0.5% (w/v), in heavy mineral oil containing 0.2% digitonin] into the right hind paw of male Charles River Lewis rats (120-140g) that were housed individually and given food and water ad lib. paw volumes (both hind paws) were measured immediately after injection of the adjuvant. paw Volumes were also measured, to follow the development of inflammation-induced swelling in the arthritic paws, at intervals of 3 to 7 days by immersion of the paw to the level of the lateral malleolus in a mercury plethysmograph.
Drugs were administered once a day (starting on the day of adjuvant injection) by […] using Tween 80 (polyoxyethylene sorbitan mono-oleate) at a dose of 0.25 ml/100 g body Weight as the vehicle. Arthritic control rats received daily doses of the vehicle only. On day 23-25, the rats were sacrificed, plasma collected and plasma fibrinogen levels determined (ammonium sulfate turbidimetric method) as described by Exner et al., Amer. J. Clin Path, 71:521-527 (1979). Anti-inflammatory activity of the test drugs were determined by comparing the extent of paw swelling (paw volume on a particular day, i.e. day four to day twenty-five, minus the paw volume on day 0) in drug-treated arthritic rats with the extent of paw swelling in the vehicle-treated arthritic rats. Drug induced decreases in the level of plasma fibrinogen. an acute phase protein that is elevated in the plasma of rats with adjuvant-induced arthritis, were also used to quantitate the anti-inflammatory activity.

[2] = system: delayed hypersensitivity to methylated bovine serum albumin (MBSA); assay: MBSA delayed hypersensitivity test (Table II)
Procedure: The dose volumes used were 5 ml.kg^-1 for rats and 10 ml.kg^-1 for mice. Controls were dosed with the appropriate volume of arachis oil vehicle.
Animals -- Male and female MFI mice substrain E33. Initial weight approximately 25 gm.
Materials -- Methylated bovine serum albumin (MBSA) (Sigma) Freunds complete adjuvant (Difco)
Method -- Groups of 10 mice were sensitized (day 0) by injecting intradermally at two abdominal. sites 0.05 ml. of a water in oil emulsion of MBSA and Freunds complete adjuvant. On day 9 the mice were challenged by injecting 20 l of a 1% MBSA solution to one paw and 20 l of water into the contralateral paw. Paw volumes were measured 24 hours later by mercury displacement plethysmography. The means percentage increase in paw volume of the MBSA-challenged paw compared with the water challenged paw was calculated for each treatment group. Dosing with vehicle and retinold commenced on day 0 and finished on day 9.

[3] = system: 4 hr carrageenan pleurisy; assay: 4 hr carrageenan pleurisy, non-immune inflammation (Table V); assay type: in vivo, female Alderley Park Strain 1 rats; settings: 10 days
Procedure: Animals -- Female Alderley Park Strain 1 rats weighing 170-205 g. at the start of the experiment were used.
Materials -- Lambda -carrageenan. Prepared as a solution in saline and sterilized by autoclaving.
Method -- Compound A was administered orally to groups of 8 rats once daily for 10 days at doses of 10, 30 and 100 mg.kg^-1. Control animals received the vehicle. One hour after the last dose the animals were anesthetised with methohexitone (Brietal, 50 mg.kg-1) and 0.2 ml of 1% lambda carrageenan was injected into the pleural cavity. Four hours later the animals were killed with an overdose of pentobarbitone (Sagatal), the pleural exudate was collected and the pleural cavity was washed out with 2 ml of phosphate-buffered saline (PB$-A, Oxoid). The exudate volume was recorded and cell counts were determined using an automatic cell counter (Coulter). Differential cell counts were performed on exudate smears stained with Giemsa stain in order to determine separately the numbers of polymorphonuclear leucocytes (PMN) and mononuclear cells (MN).
Immediately after recovery of the pleural exudates the tibiae of the animals were excised and their breaking strains were determined.
The body weights of the animals were recorded daily. Statistical analyses were performed using Student's two-tailed t test.
In the following table the dose is in mg per kg per day.

[4] = system: type II collagen arthritis; assay: established type II collagen arthritis (Table IV); assay type: in vivo, male and female Alderley Park Strain 1 rats; settings: 100 mg.kg^-1 p.o.; male and female rats
Procedure: In all tests, Compound A and the other retinoids tested concurrently were formulated in arachis oil containing 0.05% propylgallate as anti-oxidant. The dose volumes used were 5 ml.kg^-1 for rats and 10 ml.kg^-1 for mice. Controls were dosed with the appropriate volume of arachis oil vehicle.
Animals -- Male and female Alderley Park Strain 1 rats.
Materials -- Type 2 collagen (prepared from bovine nasal septum cartilage), Freunds incomplete adjuvant (Difco).
Method -- Rats were sensitized to type 2 collagen by injecting them intradermally with 1 ml. of a water in oil emulsion consisting of equal parts of a 1 mg.ml^-1 solution of type 2 collagen in 0.45M NaCl, 0.02M Tris, PH 7.4 and Freunds incomplete adjuvant. Rats developing arthritis were allocated on day 15 post sensitization to a control arachis oil treated group (6 male, 4 female) or to the Compound A treated group (6 male, 5 female). Hind paw volume measurements were taken to ensure even distribution of rats between groups. An overnight collection of urine was made on days 15/16 and dosing commenced on day 16. […] Compound A was dosed at 100 mg.kg^-1 p.o. On days 19/20 a second overnight collection of urine was made. […] On day 20 a second hind paw measurement was taken. Rats were then anaesthetised with sodium pentobarbitone, bled, killed and X-rays taken of hind and forepaws. Rats were dosed on days 16-19 inclusive (4 doses).

[5] = system: adjuvant arthritis in the rat; assay: developing adjuvant arthritis in the rat (Table III); assay type: in vivo, AHH/R female rats (PVG derived); settings: 15 mg.kg^-1 p.o.
Procedure: Animals--AHH/R Female rats (PVG derived with an initial weight range of 110 to 140 g. were used.
Materials--Adjuvant for injection. An homogenized suspension of heat killed M. tuberculosis (Human strains C, DT and PN), 5 mg.Ml^-1 in liquid Paraffin was Prepared.
Method Rats were randomly split into groups of five and adjuvant arthritis was induced by the sub-plantar injection of 0.1 ml of adjuvant susPension into the right hind paw of each rat. Test compounds were administered by intubation each morning commencing the day of adjuvant injection. Two groups of control rats were dosed with the vehicle as was a group of three normal rats included for comparative purposes. Dosing was carried out daily until the end of the test on day 15 except for the first weekend (days 5 & 6). Treatment groups are shown in Table III and include etretinate as standard retinoid.
Measurements of right hind paw volume were made initially and on days 2 and 4 after and adjufant injection (primary phase). Right and left hind paw volume were then measured on day 8 and every two or three days until the end of the experiment on day 15 (secondary phase). At this time the mobility of each ankle joint and the
incidence and severity of secondary lesions on nose, ears, forepaws, left hind paw and tail were also assessed in terms of degrees of flexion possible and by using an arbitrary scoring system, respectively.
The time course curves for the injected paws were integrated from days 0 to 4 to reflect primary swelling and from days 8 to 15 (secondary swelling). The secondary swelling in the non-injected paw was integrated similarly from days 8 to 15. Calculations were carried out using a specific computer program which computed mean ± se for each integrated area. The significance of differences from controls was determined by Student s t test (2 tailed) and percentage reductions from control areas were calculated. Percentage improvements in joint mobility and percentage reductions in lesion score were also determined. In the latter case the Wilcoxon rank sum test (2 tailed) was used to express the difference from the control score using raw data. Mean body weight change in each group was recorded.

SMILES: CC1=C(/C=C/C(C)=C/C=C/C(C)=C\C(=O)O)C(C)(C)CCC1 [reference compound]
Body Weight Gain ([1]; oral 60 μMol/Kg): -7 g

Tibial Breaking Strain (Right + Left) % change ([3]; 10 mg/kg/day p.o.): -3.4%
Tibial Breaking Strain (Right + Left) Mean ([3]; 10 mg/kg/day p.o.): 6.5 kg
Tibial Breaking Strain (Right + Left) % change ([3]; 30 mg/kg/day p.o.): +1.5%
Tibial Breaking Strain (Right + Left) Mean ([3]; 30 mg/kg/day p.o.): 6.8 kg
Tibial Breaking Strain (Right + Left) % change ([3]; 100 mg/kg/day p.o.): -0.3%
Tibial Breaking Strain (Right + Left) Mean ([3]; 100 mg/kg/day p.o.): 6.7 kg
weight during treatment (in words) [4]: Both male and female rats lost weight
SMILES: CCCCCCCCCOc1ccccc1/C=C/C(C)=C/C=C/C(C)=C/C(=O)O [Compound A, All(E)-9-[2-(nonyloxy)phenyl]-3,7-dimethyl-2,4,6,8-nonatetraenoic acid]
Mean body weight ([2]; 10 mg.kg^-1 oral, female (F)): -0.2 g
Mean body weight ([2]; 10 mg.kg^-1 oral, male (M)): 3.3 g
Mean body weight ([2]; 30 mg.kg^-1 oral, female (F)): 0.5 g
Mean body weight ([2]; 30 mg.kg^-1 oral, male (M)): 2.8 g
Mean body weight ([2]; 100 mg.kg^-1 oral, female (F)): -0.2 g
Mean body weight ([2]; 100 mg.kg^-1 oral, male (M)): 3.3 g

SMILES: CCOC(=O)/C=C(C)/C=C/C=C(C)/C=C/c1c(C)cc(OC)c(C)c1C [Etretinate, etretinate]
% (cf. arachis oil control) ([2]; 10 mg.kg^-1 oral, 10 doses): 46%
Mean body weight ([2]; 10 mg.kg^-1 oral, female (F)): -2.0 g
Mean body weight ([2]; 10 mg.kg^-1 oral, male (M)): -0.8 g
Joint Mobility (% INC) [5]: 50%
Lesion Score (% RDN) [5]: 56%
% reduction of paw swelling, Secondary (left) ([5]; days 8-15): 30%
% reduction of paw swelling, Secondary (right) ([5]; days 8-15): 67%

SMILES: CCCCCCCCNc1ccccc1/C=C/C(C)=C/C=C/C(C)=C/C(=O)OCC
Body Weight Gain ([1]; oral 75 μMol/Kg): +24 g

SMILES: CC(/C=C/c1ccccc1OCCCCCCCCO)=C\C=C\C(C)=C\C(=O)O
change in vivo at 95 µmol/kg ([1]; oral 95 μMol/Kg, read-out: % Reduction in Paw Volume On day 23, Left): -49%
change in vivo at 95 µmol/kg ([1]; oral 95 μMol/Kg, read-out: % Reduction in Paw Volume On day 23, Right): -37%
Body Weight Gain ([1]; oral 95 μMol/Kg): +27 g
Plasma fibrinogen % change (reduction) ([1]; oral 95 μMol/Kg): -35%

SMILES: CCCCCCCCCOc1ccccc1/C=C/C(C)=C/C=C/C(C)=C/C(=O)O [drawing 6]
Body Weight Gain ([1]; oral 76 μMol/Kg): +27 g

SMILES: CCCCCCCCCOc1cccc(F)c1/C=C/C(C)=C/C=C/C(C)=C/C(=O)O
Body Weight Gain ([1]; oral 75 μMol/Kg): +46 g

SMILES: CCCCCCCCCOc1ccc(OC)cc1/C=C/C(C)=C/C=C/C(C)=C/C(=O)O
Body Weight Gain ([1]; oral 75 μMol/Kg): +27 g

SMILES: COc1ccc2c(c1)c(CC(=O)O)c(C)n2C(=O)c1ccc(Cl)cc1 [Indomethacin, reference compound]
change in vivo at 3 µmol/kg ([1]; read-out: % Reduction in Paw Volume On day 23, Left): -67%
change in vivo at 3 µmol/kg ([1]; read-out: % Reduction in Paw Volume On day 23, Right): -66%

SMILES: CCCCCCCCCOc1cccc(Cl)c1/C=C/C(C)=C/C=C/C(C)=C/C(=O)O
Body Weight Gain ([1]; oral 75 μMol/Kg): +35 g
